Source: ChEMBL document CHEMBL1201862, “PubChem BioAssay data set” (2004)
Activity calls are given as the source filed them.

Assays:
[1] = blockers of HIV-1 envelope-mediated cell-cell fusion – cherry-pick, dose response (AID 652057); assay type: functional, cell-based
[2] = blockers of HIV-1 ZM109 envelope-driven cell-cell fusion – HeLa effector, CEM target cells, luciferase, cherry-pick, dose response (AID 652058); assay type: functional, cell-based;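 also: luciferase signal from HIV-1 Env mediated cell-cell fusion of effector and target cells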
[3] = off-target signal loss in HeLa-CEM21 co-culture – HeLa F-luc CTL cells, cherry-picked, counter-screen for HIV-1 Env fusion inhibitor project, dose response (AID 652040); assay type: functional, cell-based;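 also: potency for signal decrease marking cytotoxic or nonspecific inhibition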
[4] = HIV-1 AD8 envelope cell-cell fusion blockers – cherry-pick, dose response (AID 652062); assay type: functional, cell-based;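 also: luciferase signal from cell-cell fusion driven by HIV-1 clade B AD8 Env; potency is for inhibitors of fusion seen as a drop in luminescence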
[5] = system: HEK293; test: cells; conditions: Homo sapiens
[6] = system: HEK293; test: cells; conditions: Homo sapiens; remark: listed apart in the source
[7] = target: Voltage-gated inwardly rectifying potassium channel KCNH2 (Homo sapiens, UniProt Q12809); conditions: Potency;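 also: confirmatory quantitative high-throughput screen measuring inhibition of hERG channel activity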
Sequence of Voltage-gated inwardly rectifying potassium channel KCNH2 (Q12809 whole entry): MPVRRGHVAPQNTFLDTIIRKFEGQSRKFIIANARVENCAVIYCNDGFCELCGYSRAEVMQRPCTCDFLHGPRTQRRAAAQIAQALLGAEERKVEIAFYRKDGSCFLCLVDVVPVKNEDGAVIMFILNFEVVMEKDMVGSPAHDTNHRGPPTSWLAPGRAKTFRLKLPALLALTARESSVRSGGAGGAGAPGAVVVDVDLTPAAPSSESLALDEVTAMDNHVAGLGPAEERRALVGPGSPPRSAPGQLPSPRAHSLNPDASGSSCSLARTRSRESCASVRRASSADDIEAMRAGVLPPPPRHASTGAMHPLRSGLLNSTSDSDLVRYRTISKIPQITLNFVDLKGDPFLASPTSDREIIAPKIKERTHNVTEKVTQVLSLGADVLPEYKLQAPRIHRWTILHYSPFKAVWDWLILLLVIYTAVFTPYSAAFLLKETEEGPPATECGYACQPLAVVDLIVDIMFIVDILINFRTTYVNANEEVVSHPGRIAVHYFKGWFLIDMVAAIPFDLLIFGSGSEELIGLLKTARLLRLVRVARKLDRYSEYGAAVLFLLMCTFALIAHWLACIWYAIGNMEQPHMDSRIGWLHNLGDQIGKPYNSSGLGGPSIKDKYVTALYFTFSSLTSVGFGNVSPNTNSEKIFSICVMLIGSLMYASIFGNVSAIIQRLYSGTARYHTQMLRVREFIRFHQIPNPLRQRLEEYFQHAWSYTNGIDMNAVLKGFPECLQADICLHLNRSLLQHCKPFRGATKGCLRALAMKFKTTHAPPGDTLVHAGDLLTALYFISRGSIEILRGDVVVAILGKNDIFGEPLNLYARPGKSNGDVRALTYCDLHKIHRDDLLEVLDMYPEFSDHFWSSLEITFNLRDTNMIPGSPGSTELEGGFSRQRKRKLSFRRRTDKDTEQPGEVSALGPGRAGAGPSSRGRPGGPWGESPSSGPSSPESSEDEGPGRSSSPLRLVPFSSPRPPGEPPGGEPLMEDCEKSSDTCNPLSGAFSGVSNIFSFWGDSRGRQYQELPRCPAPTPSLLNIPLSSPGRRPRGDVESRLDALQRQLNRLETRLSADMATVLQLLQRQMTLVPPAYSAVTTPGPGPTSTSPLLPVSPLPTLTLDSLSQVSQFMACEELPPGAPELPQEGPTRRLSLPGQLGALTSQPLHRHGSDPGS

[8] = target: Intestinal-type alkaline phosphatase (Mus musculus, UniProt P24822); test: PubChem AID 488875; assay type: functional
Sequence of Intestinal-type alkaline phosphatase (Mus musculus, UniProt P24822) (P24822 whole entry): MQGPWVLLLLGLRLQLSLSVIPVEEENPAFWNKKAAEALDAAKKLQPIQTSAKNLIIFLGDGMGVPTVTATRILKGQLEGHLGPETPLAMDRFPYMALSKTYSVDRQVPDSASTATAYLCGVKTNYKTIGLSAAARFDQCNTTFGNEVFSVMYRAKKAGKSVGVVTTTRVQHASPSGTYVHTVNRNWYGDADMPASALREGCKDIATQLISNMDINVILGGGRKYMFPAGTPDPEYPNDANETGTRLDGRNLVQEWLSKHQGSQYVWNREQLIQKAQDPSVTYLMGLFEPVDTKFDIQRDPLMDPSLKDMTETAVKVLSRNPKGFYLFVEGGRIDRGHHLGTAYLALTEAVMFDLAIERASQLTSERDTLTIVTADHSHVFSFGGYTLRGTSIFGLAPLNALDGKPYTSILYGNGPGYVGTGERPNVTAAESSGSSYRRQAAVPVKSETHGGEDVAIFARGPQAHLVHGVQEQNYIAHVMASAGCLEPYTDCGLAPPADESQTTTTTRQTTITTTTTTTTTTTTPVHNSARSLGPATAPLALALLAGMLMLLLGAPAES

[9] = target: T1, Intestinal-type alkaline phosphatase (Homo sapiens, UniProt P09923); test: human intestinal alkaline phosphatase activators, dose response, biochemical, luminescence, uHTS hits (AID 463120); assay type: functional
T1 sequence (P09923 whole entry): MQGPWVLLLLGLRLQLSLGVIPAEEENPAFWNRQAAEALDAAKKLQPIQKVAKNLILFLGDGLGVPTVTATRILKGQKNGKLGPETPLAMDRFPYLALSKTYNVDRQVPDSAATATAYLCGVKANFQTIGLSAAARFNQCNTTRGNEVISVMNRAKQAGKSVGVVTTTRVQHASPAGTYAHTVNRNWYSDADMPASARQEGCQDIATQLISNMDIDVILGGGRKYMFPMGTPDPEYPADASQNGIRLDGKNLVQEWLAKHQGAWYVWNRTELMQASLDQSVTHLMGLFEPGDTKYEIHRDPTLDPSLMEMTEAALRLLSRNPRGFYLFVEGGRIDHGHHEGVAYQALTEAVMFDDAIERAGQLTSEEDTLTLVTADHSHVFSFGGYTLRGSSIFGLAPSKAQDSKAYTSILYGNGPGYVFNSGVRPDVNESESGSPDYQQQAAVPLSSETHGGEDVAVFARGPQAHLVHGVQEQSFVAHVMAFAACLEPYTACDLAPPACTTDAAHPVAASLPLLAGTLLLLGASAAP

[10] = target: T1, Intestinal-type alkaline phosphatase; test: activation of human intestinal alkaline phosphatase – biochemical, luminescent, uHTS hits, set 2, dose response (AID 488817); assay type: functional;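 also: potency of activators that raise enzyme activity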
[11] = target: T2, Alkaline phosphatase, tissue-nonspecific isozyme (Homo sapiens, UniProt P05186); test: activation of tissue-nonspecific alkaline phosphatase – biochemical, TNAP isozyme, human IAP uHTS hits, selectivity assay for human IAP activator project, dose response (AID 488886); assay type: functional;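 also: potency of compounds raising TNAP activity as a selectivity check on IAP activators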
T2 sequence (P05186 whole entry): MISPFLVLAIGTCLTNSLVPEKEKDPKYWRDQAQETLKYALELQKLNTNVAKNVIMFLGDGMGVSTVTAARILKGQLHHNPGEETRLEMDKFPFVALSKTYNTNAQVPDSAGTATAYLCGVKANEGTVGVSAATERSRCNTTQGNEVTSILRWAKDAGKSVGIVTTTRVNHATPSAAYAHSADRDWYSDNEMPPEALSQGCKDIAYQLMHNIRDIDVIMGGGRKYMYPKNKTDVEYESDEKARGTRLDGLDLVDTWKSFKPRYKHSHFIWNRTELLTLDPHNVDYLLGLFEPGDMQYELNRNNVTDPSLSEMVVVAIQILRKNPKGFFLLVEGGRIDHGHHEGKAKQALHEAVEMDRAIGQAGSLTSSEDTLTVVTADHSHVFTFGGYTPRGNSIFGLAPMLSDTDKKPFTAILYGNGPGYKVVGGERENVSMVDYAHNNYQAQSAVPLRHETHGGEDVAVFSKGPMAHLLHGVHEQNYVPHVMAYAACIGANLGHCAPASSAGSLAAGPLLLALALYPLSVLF

[12] = target: Ras and Rab interactor 1/Tyrosine-protein kinase ABL1 (Homo sapiens, UniProt P00519+Q13671); assay type: functional;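 also: biochemical TR-FRET dose-response test measuring inhibition of binding between Rin1 and Abl proteins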
Sequence of Ras and Rab interactor 1/Tyrosine-protein kinase ABL1 (P00519 whole entry): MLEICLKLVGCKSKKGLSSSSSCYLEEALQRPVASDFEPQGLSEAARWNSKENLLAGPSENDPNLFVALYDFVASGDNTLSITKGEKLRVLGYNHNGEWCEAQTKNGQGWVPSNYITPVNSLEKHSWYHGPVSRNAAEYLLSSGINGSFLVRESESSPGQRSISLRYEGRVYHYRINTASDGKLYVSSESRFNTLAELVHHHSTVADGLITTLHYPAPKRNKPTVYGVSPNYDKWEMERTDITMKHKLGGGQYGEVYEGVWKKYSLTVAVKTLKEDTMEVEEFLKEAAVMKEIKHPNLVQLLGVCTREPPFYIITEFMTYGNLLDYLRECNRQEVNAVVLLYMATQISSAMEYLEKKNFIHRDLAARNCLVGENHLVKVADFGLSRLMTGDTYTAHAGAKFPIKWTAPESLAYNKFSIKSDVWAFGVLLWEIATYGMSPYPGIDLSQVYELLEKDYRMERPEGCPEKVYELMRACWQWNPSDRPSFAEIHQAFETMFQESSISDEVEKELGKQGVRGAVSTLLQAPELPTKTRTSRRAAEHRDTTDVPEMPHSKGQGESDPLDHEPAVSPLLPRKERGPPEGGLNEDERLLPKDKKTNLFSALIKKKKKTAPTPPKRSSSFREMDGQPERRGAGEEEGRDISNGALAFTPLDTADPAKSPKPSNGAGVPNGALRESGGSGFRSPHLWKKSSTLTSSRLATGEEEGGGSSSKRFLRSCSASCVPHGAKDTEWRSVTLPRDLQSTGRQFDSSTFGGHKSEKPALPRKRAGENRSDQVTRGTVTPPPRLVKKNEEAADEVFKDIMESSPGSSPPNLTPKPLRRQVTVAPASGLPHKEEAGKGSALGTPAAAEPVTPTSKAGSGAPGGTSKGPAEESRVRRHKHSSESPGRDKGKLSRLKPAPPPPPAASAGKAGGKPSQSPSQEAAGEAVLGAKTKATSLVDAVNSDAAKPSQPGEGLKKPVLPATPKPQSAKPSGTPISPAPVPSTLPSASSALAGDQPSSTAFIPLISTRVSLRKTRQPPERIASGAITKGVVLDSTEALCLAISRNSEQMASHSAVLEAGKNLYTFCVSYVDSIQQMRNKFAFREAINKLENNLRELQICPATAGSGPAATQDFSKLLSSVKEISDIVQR
Sequence of Ras and Rab interactor 1/Tyrosine-protein kinase ABL1 (Q13671 whole entry): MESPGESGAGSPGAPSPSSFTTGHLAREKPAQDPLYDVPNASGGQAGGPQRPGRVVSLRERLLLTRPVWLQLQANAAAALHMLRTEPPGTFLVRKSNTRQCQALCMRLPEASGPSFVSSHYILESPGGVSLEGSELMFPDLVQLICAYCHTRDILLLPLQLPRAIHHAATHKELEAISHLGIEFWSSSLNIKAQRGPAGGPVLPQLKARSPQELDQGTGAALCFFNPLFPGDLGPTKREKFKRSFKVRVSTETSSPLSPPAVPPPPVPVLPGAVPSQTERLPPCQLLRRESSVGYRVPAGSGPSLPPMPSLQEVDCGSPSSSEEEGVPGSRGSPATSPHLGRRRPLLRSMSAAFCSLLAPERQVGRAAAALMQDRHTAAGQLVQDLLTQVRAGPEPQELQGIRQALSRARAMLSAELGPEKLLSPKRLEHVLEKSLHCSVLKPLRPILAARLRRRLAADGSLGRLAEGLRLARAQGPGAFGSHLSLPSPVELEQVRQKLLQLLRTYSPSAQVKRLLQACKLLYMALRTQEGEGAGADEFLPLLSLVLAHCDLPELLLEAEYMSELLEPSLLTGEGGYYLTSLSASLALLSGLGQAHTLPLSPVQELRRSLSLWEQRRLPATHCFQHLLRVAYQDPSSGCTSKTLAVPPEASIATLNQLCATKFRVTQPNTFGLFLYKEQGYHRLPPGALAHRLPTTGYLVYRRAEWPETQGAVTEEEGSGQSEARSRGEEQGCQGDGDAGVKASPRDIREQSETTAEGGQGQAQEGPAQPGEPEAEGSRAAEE

[13] = system: Escherichia coli; test: microbe, parasite or virus in culture
[14] = THP-1 cell cytotoxicity, dose response, cytotoxicity control for non-replicating M. tuberculosis project (AID 489025); assay type: functional
[15] = Luminescence Cell-Based Dose Retest to Confirm Inhibitors of Cancer Stem Cells. [Related pubchem assays (depositor defined):AID2717, AID2721]; assay type: functional; conditions: Homo sapiens
[16] = target: T3, Microphthalmia-associated transcription factor (Homo sapiens, UniProt O75030); test: reducers of TRPM1 reporter luminescence, concentration series – cell-based, SK-MEL-5, cherry-picked, set 3, MITF inhibitor project, dose response (AID 493073); assay type: functional;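 also: SK-MEL-5 melanoma cells with luciferase driven by the MITF target TRPM1 promoter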
T3 sequence (O75030 whole entry): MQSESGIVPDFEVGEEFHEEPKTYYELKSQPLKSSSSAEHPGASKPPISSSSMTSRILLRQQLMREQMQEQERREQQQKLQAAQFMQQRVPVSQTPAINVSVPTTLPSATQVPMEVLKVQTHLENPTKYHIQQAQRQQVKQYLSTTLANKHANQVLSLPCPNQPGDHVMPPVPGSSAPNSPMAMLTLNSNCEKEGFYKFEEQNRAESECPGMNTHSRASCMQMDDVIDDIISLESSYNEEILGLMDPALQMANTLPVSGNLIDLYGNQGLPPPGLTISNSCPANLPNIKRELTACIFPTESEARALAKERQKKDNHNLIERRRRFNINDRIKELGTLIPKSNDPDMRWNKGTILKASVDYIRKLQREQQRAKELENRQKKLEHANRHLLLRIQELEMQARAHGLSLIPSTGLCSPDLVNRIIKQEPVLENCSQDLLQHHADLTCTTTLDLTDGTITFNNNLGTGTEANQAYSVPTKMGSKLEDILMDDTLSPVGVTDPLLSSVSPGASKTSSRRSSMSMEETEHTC

[17] = cells; assay type: functional
[18] = system: A-375; test: MITF: Counter assay: A375 proliferation Measured in Cell-Based System Using Plate Reader - 2084-03_Inhibitor_Dose_DryPowder_Activity. [Related pubchem assays (depositor defined):AID488944]; assay type: functional; conditions: Homo sapiens
[19] = system: A-375; test: proliferation inhibition in MITF-low A375 cells – cell-based, cherry-pick samples, set 2, counter-screen for MITF modulator project, dose response (AID 540335); assay type: functional; conditions: Homo sapiens
[20] = system: HEK293; test: inhibition of NOD1-driven NF-kB reporter – cell-based, luminescence, uHTS, primary screen (AID 1578); assay type: functional; conditions: Homo sapiens
[21] = system: HEK293; test: cells; assay type: functional, cell-based; conditions: Homo sapiens
[22] = system: HEK293; test: cells; assay type: functional, cell-based; conditions: Homo sapiens; remark: listed apart in the source
[23] = system: HEK293; test: NOD2 signaling inhibitors in MDP-stimulated cells, cell-based, uHTS, luminescence (AID 2001); assay type: functional; conditions: Homo sapiens
[24] = target: COUP transcription factor 2 (Homo sapiens, UniProt P24468); test: Luminescence-based cell-based high throughput dose response assay to identify inhibitors of COUP-TFII (NR2F2).; assay type: functional;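 also: HEK293 cells transiently cotransfected with COUP-TFII expression vector and reporter; luciferase reporter luminescence driven by COUP-TFII from the pX2-168 reporter plasmid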
Sequence of COUP transcription factor 2 (P24468 whole entry): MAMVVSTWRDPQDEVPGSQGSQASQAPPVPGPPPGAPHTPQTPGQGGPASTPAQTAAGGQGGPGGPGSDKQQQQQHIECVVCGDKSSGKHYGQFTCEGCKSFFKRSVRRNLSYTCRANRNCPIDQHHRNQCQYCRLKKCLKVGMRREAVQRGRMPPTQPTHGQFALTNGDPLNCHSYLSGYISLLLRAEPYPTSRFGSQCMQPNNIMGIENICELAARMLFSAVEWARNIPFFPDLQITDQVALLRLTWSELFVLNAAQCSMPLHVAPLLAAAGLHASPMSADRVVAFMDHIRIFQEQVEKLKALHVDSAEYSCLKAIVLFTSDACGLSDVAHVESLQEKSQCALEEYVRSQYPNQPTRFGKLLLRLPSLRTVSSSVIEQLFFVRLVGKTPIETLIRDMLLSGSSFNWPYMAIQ

For `CCCNC(=O)c1ccccc1NC(=O)c1ccccc1N(C)S(=O)(=O)c1ccccc1`, the AC50 [1] was 1.83 µM (active), the AC50 [2] was 3.19 µM (active) and the AC50 [3] was 3.2 µM (active). The AC50 [4] was 8.47 µM (active), the EC50 [5] was > 59.6 µM (inactive) and the EC50 [6] was > 59.6 µM (inactive).
For `Nc1nc(SCc2ccc([N+](=O)[O-])cc2)c2ncn([C@@H]3O[C@H](CO)[C@H](O)[C@H]3O)c2n1`, the AC50 [7] was 20 µM (inconclusive).
For `CC(C)n1cc(CN2CCC(C(=O)Nc3cccc(-c4cccc(Cl)c4)c3)CC2)cn1`, the EC50 [8] was 88 µM (active), the EC50 [9] was 82.8 µM (active) and the EC50 [10] was 67.3 µM (active). For the same molecule, the EC50 [11] was 66.1 µM (active) and the IC50 [12] was 16.4 µM (inactive).
In the case of `COCc1cc(O)nc2cc(NC(=O)C(F)(F)F)c(C)cc12`, the AC50 [13] is reported as 57.2 µM (active).
With `CC(C)c1ccc(N2C(=O)NC(=O)/C(=C/C=C/c3ccco3)C2=O)cc1` the CC50 [14] was 31.6 µM (active), the AC50 [15] was 1.81 µM (active) and the AC50 [16] was 5.89 µM (active). The IC50 [17] was 17.4 µM (active), the AC50 [18] was > 35 µM (active) and the AC50 [19] was > 35 µM (active). The EC50 [5] was > 59.6 µM (inactive) and the EC50 [6] was > 59.6 µM (inactive).
With `C=CC[n+]1c(-c2ccc(Cl)cc2Cl)csc1Nc1c(C)n(C)n(-c2ccccc2)c1=O` the EC50 [20] was 5.29 µM (active), the IC50 [21] was 6.87 µM (active) and the IC50 [22] was > 20 µM (inactive). For the same molecule, the IC50 [23] was 7.13 µM (active) and the IC50 [24] was 9.47 µM (active).
With `COc1ccccc1CN1CCC(n2nccc2NC(=O)CCCc2ccccc2)CC1` the EC50 [8] was 51.3 µM (active), the EC50 [9] was 74 µM (active) and the EC50 [10] was 60.4 µM (active). The EC50 [11] was 75.8 µM (active).
